This is an account of results in patent US6759435B1, “Antidepressant drugs and methods” (A.P. Group Inc., priority 2003, dated 2004).

Assay [1] deals with immobility of Swiss-Webster CD male mice. Nature of the assay: Reduction of behavioral despair in vivo (modified Porsolt method). Particulars: mouse, subcutaneous, tested one hour after injection, linear regression analysis of % MPE data. How it is done: Reduction of Behavioral Despair In Vivo (Modified Porsolt Method) by (1-{2-[1-(3,4-Dichloro-phenyl)-ethyl]-phenyl}-ethyl)-methyl-amine hydrochloride.
A modification of the procedure described by Porsolt et al., Arch. Int. Pharmnacodyn., 229, pp. 327-336 (1977) was used. A number of Swiss-Webster CD male mice weighing 25-30 g. were housed under standard laboratory conditions for at least one week prior to experimentation. Groups of 10 mice were then injected subcutaneously with either a given dosage of the named test compound or vehicle (5% Emulphor: 5% ethanol: 90% normal saline). One hour later the mice were placed individually in 1 liter beakers containing 7 cm of 25° C. water. […] A total of ten observations were made, each being scored as “0=animal moving, swimming, attempting to escape” or “1=animal immobile”. The number of positive observations for each mouse was then totaled and a mean immobility score calculated for the group of ten. […] From the % MPE data a % MPE50 value, i.e. the dosage producing a 50% reduction in immobility relative to control, was determined by linear regression analysis to be 5.2 mg/kg body weight for the named test compound. Similarly, the % MPE50 values were determined for other compounds in examples 1-17 and were <8.0 mg/kg.

The test system of assay [2] is PCA-induced serotonin depletion (5HT uptake into 5HT neurons), rat whole brain. Nature of the assay: Antagonism of parachloroamphetamine (PCA)-induced depletion of serotonin levels from rat brain in vivo. Further details: species or system Sprague-Dawley CD male rats. The note with it: subcutaneous, together with 6.6 mg/kg PCA, whole brain serotonin four hours later. The source says:
Ability of (1-{2-[1-(3,4-Dichloro-phenyl)-ethyl]-phenyl}-ethyl)-methyl-amine Hydrochloride to Antagonize Parachloroamphetamine (PCA)-induced Depletion of Serotonin Levels from Rat Brain In Vivo
Serotonin uptake blockers show a dose-dependent antagonism of the serotonin-depleting action of PCA, a drug which requires 5HT uptake into 5HT neurons to exert its effect. Sprague-Dawley CD male rats (180-230 g.) in groups of five received two simultaneous subcutaneous injections: either the named test compound (at different dosage levels)+6.6 mg/kg body weight PCA, water+6.6 mg/kg body weight PCA, or water+water (controls). The rats were decapitated four hours later and their whole brain assayed for serotonin content by the Bogdanski method. Homogenates of brain in 0.1N HCl were made alkaline with borate buffer and extracted with butanol. The solvent phase was then extracted with 0.1N HCl. The aqueous extracts were acidified with concentrated HCl and the intrinsic fluorescence of serotonin measured in a spectrophotofluorometer. The ED50, i.e., the dose giving a 50% reversal of the PCA-induced serotonin depletion, was estimated to be 0.1 mg/kg body weight. Similarly, the ED50 for other compounds in Examples 1-17 were determined and were <0.3 mg/kg.

For the compound `CNC(C)c1ccccc1C(C)c1ccc(Cl)c(Cl)c1.Cl` (centres unmarked) [(1-{2-[1-(3,4-Dichloro-phenyl)-ethyl]-phenyl}-ethyl)-methyl-amine Hydrochloride], the “% MPE50, the dosage producing a 50% reduction in immobility relative to control” value in assay [1] worked out at 5.2 mg/kg body weight. For the same compound, the “ED50, the dose giving a 50% reversal of the PCA-induced serotonin depletion” value in assay [2] came to 0.1 mg/kg body weight.
